pKi: −log10 of the molar value. Read-outs that look alike come from different tables or passages of the source.
How the values were obtained:
[1] = molecular target: PI3-Kα (Mus musculus (Mouse), UniProt P42337); assay: PI3-Kα biochemical assay (in vitro kinase assay, fluorescence polarization); conditions: Ki calculated from IC50, [ATP]=30 uM, Km=25 uM;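 further: Insect-cell-expressed mouse p110/p85 complex converting PI(4,5)P2, product PI(3,4,5)P3 detected by displacing TAMRA-tagged PI(3,4,5)P3 from Grip1 PH domain, lower polarization means more product, room temperature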
[2] = molecular target: mTOR (Homo sapiens (Human), UniProt P42345)
[3] = system: PI3-K (phosphorylation of AKT at serine 473) in BT20 cells; assay: PI3-Kα cellular assay (phospho-AKT Ser473 ELISA in BT20 cells); conditions: Homo sapiens, BT-20, 1 h;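 further: lysates read by ELISA with TMB colour at 450 nm, cells given 0.5% DMSO vehicle serve as positive control and cell-free wells as negative control, duplicate wells per concentration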
[4] = read-out: S473 pAKT 0.5% FBS IC50 (μM)
[5] = read-out: S473 pAKT 10% FBS IC50 (μM)

Sequence of mTOR (P42345 2156-2469): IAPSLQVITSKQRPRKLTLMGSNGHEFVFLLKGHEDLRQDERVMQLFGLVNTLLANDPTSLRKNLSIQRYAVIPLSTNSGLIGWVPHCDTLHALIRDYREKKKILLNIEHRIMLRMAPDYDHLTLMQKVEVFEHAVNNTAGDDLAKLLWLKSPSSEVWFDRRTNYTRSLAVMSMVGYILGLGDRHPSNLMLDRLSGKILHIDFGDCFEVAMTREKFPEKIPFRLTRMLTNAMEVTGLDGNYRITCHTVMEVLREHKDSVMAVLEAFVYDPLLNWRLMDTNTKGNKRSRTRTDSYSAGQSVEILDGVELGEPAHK
Sequence of PI3-Kα (P42337 whole entry, the tested form may be a part): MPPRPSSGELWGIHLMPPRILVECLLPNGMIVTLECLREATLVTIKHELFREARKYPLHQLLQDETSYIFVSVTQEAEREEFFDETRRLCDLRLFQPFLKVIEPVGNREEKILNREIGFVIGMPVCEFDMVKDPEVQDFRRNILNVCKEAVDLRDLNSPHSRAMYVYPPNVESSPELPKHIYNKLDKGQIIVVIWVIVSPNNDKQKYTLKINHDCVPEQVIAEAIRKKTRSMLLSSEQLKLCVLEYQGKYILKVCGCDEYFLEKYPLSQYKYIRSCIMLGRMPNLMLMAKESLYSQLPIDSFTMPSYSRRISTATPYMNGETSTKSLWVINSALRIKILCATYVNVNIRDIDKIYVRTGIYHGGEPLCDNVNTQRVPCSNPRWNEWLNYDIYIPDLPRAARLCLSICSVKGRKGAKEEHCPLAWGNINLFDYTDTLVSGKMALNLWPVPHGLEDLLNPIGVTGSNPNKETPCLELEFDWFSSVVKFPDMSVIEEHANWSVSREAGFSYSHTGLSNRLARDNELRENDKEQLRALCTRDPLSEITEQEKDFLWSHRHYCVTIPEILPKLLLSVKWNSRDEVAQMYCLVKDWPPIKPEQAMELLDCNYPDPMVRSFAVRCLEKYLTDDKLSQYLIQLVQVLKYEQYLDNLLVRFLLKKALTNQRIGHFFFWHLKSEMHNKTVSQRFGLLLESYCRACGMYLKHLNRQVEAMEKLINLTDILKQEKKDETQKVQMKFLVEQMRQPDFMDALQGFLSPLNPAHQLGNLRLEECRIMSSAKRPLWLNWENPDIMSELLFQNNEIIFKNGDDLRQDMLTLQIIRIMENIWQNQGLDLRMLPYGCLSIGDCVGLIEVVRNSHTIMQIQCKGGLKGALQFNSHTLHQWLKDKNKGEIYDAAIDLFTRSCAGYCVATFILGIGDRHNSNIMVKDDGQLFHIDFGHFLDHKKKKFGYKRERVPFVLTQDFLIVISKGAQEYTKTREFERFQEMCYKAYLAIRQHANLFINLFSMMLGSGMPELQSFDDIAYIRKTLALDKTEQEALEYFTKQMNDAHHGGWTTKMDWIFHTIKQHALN
Sequence of PI3-Kα (P26450 whole entry partner, the tested form may be a part): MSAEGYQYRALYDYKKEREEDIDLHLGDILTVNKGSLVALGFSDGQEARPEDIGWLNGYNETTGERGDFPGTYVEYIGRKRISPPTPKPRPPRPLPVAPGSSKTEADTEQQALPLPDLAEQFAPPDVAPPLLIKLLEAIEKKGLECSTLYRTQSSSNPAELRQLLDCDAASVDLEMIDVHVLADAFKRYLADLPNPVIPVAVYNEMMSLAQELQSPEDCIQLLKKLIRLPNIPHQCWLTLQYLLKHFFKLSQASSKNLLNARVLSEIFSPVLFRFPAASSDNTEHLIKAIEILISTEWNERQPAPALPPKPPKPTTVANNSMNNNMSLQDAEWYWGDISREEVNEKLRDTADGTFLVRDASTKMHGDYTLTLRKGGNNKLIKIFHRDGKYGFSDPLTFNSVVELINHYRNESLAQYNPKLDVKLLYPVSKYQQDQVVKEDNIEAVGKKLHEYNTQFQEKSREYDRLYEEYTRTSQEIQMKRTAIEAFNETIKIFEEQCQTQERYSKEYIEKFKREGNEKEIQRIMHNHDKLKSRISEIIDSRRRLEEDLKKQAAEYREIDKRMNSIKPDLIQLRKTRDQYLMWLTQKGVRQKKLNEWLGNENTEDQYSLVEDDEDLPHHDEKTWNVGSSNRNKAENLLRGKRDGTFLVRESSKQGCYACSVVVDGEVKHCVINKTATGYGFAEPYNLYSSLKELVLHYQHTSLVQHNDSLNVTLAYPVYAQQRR

Structure (SMILES)	PI3Ka Ki [1]	pKi [2]	IC50 [3, 4]	IC50 [3, 5]
Cn1cc(-c2ccc3ncc4c(c3n2)n(-c2ccc(C(C)(C)C#N)cc2)c(=O)n4C)cn1 [Compound 114, 2-Methyl-2-{4-[3-methyl-8-(1-methyl-1H-pyrazol-4-yl)-2-oxo-2,3-dihydro-1,3,5,9-tetraaza-cyclopenta[a]naphthalen-1-yl]-phenyl}-propionitrile]	0.0723 µM	7.40	0.116 µM	–
CC(=O)N1CCC(n2c(=O)n(C)c3cnc4ccc(-c5cnn(C)c5)nc4c32)CC1 [Compound 213, 1-(1-acetylpiperidin-4-yl)-3-methyl-8-(1-methyl-1H-pyrazol-4-yl)-1,3-dihydro-2H-imidazo[4,5-c][1,5]naphthyridin-2-one]	0.00409 µM	8.11	–	0.133 µM
Cn1cc(-c2ccc3ncc4[nH]c(=O)n(-c5ccc(C(C)(C)C#N)cc5)c4c3n2)cn1 [Compound 113, 2-Methyl-2-{4-[8-(1-methyl-1H-pyrazol-4-yl)-2-oxo-2,3-dihydro-1,3,5,9-tetraaza-cyclopenta[a]naphthalen-1-yl]-phenyl}-propionitrile]	0.0592 µM	7.81	0.0973 µM	–
CNC(=O)N1CCC(n2c(=O)n(C)c3cnc4ccc(-c5ccc(OC)nc5)nc4c32)CC1 [Compound 142, 4-[8-(6-methoxypyridin-3-yl)-3-methyl-2-oxo-2,3-dihydro-1H-imidazo[4,5-c][1,5]naphthyridin-1-yl]-N-methylpiperidine-1-carboxamide]	0.00115 µM	8.80	–	0.00919 µM
COc1ccc(-c2ccc3ncc4[nH]c(=O)n([C@H]5CC[C@H](OCCO)CC5)c4c3n2)cn1 [Compound 131, 1-[trans-4-(2-hydroxyethoxy)cyclohexyl]-8-(6-methoxypyridin-3-yl)-1,3-dihydro-2H-imidazo[4,5-c][1,5]naphthyridin-2-one]	0.000644 µM	8.67	–	0.0384 µM
CN(C)CC(=O)N1CCC(n2c(=O)n(C)c3cnc4ccc(-c5cnc6ccccc6c5)nc4c32)CC1 [Compound 126, 1-[1-(N,N-dimethylglycyl)piperidin-4-yl]-3-methyl-8-quinolin-3-yl-1,3-dihydro-2H-imidazo[4,5-c][1,5]naphthyridin-2-one]	0.00255 µM	8.47	0.018 µM	–
COC(=O)N1CCC(n2c(=O)n(C)c3cnc4ccc(-c5cnc6ccccc6c5)nc4c32)CC1 [Compound 122, methyl4-(3-methyl-2-oxo-8-quinolin-3-yl-2,3-dihydro-1H-imidazo[4,5-c][1,5]napthyridin-1-yl)piperidine-1-carboxylate]	0.000806 µM	7.91	0.00807 µM	–
COc1ncc(-c2ccc3ncc4c(c3n2)n([C@H]2CC[C@H](OCCO)CC2)c(=O)n4C)cn1 [Compound 148, 1-[trans-4-(2-hydroxyethoxy)cyclohexyl]-8-(2-methoxypyrimidin-5-yl)-3-methyl-1,3-dihydro-2H-imidazo[4,5-c][1,5]naphthyridin-2-one]	0.00209 µM	7.87	–	0.0263 µM
Cn1c(=O)n([C@H]2CC[C@H](OCCO)CC2)c2c3nc(-c4cnc5ccccc5c4)ccc3ncc21 [Compound 147, 1-[trans-4-(2-hydroxyethoxy)cyclohexyl]-3-methyl-8-quinolin-3-yl-1,3-dihydro-2H-imidazol[4,5-c][1,5]naphthyridin-2-one]	0.00108 µM	8.00	–	0.0107 µM
Cn1c(=O)n(C2CCN(C(=O)C(C)(C)N)CC2)c2c3nc(-c4cnc5ccccc5c4)ccc3ncc21 [Compound 145, 3-methyl-1-[1-(2-methylalanyl)piperidin-4-yl]-8-quinolin-3-yl-1,3-dihydro-2H-imidazo[4,5-c][1,5]naphthyridin-2-one]	0.00392 µM	7.88	–	0.0117 µM
CN1CCC(n2c(=O)n(C)c3cnc4ccc(-c5cnc6ccccc6c5)nc4c32)CC1 [Compound 129, 3-methyl-1-(1-methylpiperidin-4-yl)-8-quinolin-3-yl-1,3-dihydro-2H-imidazo[4,5-c][1,5]naphthyridin-2-one]	0.00592 µM	8.31	0.0117 µM	–
C[C@H](CO)n1c(=O)n(C)c2cnc3ccc(-c4cnc5[nH]ncc5c4)nc3c21 [Compound 238, 1-[(1R)-2-hydroxy-1-methylethyl]-3-methyl-8-(1H-pyrazolo[3,4-b]pyridin-5-yl)-1,3-dihydro-2H-imidazo[4,5-c][1,5]naphthyridin-2-one]	0.000438 µM	8.35	–	0.0838 µM
CN(C)c1ccc(-c2ccc3ncc4c(c3n2)n(C2CCOCC2)c(=O)n4C)cn1 [Compound 204, 8-[6-(dimethylamino)pyridin-3-yl]-3-methyl-1-(tetrahydro-2H-pyran-4-yl)-1,3-dihydro-2H-imidazo[4,5-c][1,5]naphthyridin-2-one]	0.000298 µM	7.90	–	0.029 µM
COc1ncc(-c2ccc3ncc4[nH]c(=O)n(-c5ccc(C(C)(C)C#N)cc5)c4c3n2)cn1 [Compound 111, 2-(4-(8-(2-methoxypyrimidin-5-yl)-2-oxo-2,3-dihydroimidazo[4,5-c][1,5]naphthyridin-1-yl)phenyl)-2-methylpropanenitrile]	0.0114 µM	8.81	0.0439 µM	–
COc1ccc(-c2ccc3ncc4c(c3n2)n(C2CCN(C(C)=O)CC2)c(=O)n4C)cc1 [Compound 274, 1-(1-acetylpiperidin-4-yl)-8-(4-methoxyphenyl)-3-methyl-1,3-dihydro-2H-imidazo[4,5-c][1,5]naphthyridin-2-one]	0.00771 µM	7.84	–	0.0113 µM
Cn1c(=O)n(C2CCOCC2)c2c3nc(-c4cn[nH]c4)ccc3ncc21 [Compound 199, 3-methyl-8-(1H-pyrazol-4-yl)-1-(tetrahydro-2H-pyran-4-yl)-1,3-dihydro-2H-imidazo[4,5-c][1,5]naphthyridin-2-one]	0.0113 µM	8.99	–	0.0183 µM
COCC(=O)N1CCC(n2c(=O)n(C)c3cnc4ccc(-c5cnc6[nH]ncc6c5)nc4c32)CC1 [Compound 260, 1-[1-(methoxyacetyl)piperidin-4-yl]-3-methyl-8-(1H-pyrazolo[3,4-b]pyridin-5-yl)-1,3-dihydro-2H-imidazo[4,5-c][1,5]naphthyridin-2-one]	0.000167 µM	9.49	–	0.0153 µM
COc1ncc(-c2ccc3ncc4c(c3n2)n(C2CCNCC2)c(=O)n4C)cn1 [Compound 188, 8-(2-methoxypyrimidin-5-yl)-3-methyl-1-piperidin-4-yl-1,3-dihydro-2H-imidazo[4,5-c][1,5]naphthyridin-2-one]	0.00815 µM	7.30	–	0.333 µM
Cc1ccc(-c2ccc3ncc4c(c3n2)n(C2CCN(C(=O)CN)CC2)c(=O)n4C)cn1 [Compound 180, 1-(1-glycylpiperidin-4-yl)-3-methyl-8-(6-methylpyridin-3-yl)-1,3-dihydro-2H-imidazo[4,5-c][1,5]naphthyridin-2-one]	0.00032 µM	8.42	–	0.0689 µM
Cn1c(=O)n([C@H]2CC[C@H](O)CC2)c2c3nc(-c4cnc(N)nc4)ccc3ncc21 [Compound 229, 8-(2-aminopyrimidin-5-yl)-1-(trans-4-hydroxycyclohexyl)-3-methyl-1,3-dihydro-2H-imidazo[4,5-c][1,5]naphthyridin-2-one]	0.000273 µM	9.48	–	0.00336 µM
COc1ncc(-c2ccc3ncc4c(c3n2)n(C2CCN(C)CC2)c(=O)n4C)cn1 [Compound 182, 8-(2-methoxypyrimidin-5-yl)-3-methyl-1-(1-methylpiperidin-4-yl)-1,3-dihydro-2H-imidazo[4,5-c][1,5]naphthyridin-2-one]	0.0275 µM	8.35	–	0.159 µM
Cc1ccc(-c2ccc3ncc4c(c3n2)n(C2CCN(CC(N)=O)CC2)c(=O)n4C)cn1 [Compound 176, 2-{4-[3-methyl-8-(6-methylpyridin-3-yl)-2-oxo-2,3-dihydro-1H-imidazo[4,5-c][1,5]naphthyridin-1-yl]piperidin-1-yl}acetamide]	0.000882 µM	8.85	–	0.0187 µM
COc1ccc(-c2ccc3ncc4c(c3n2)n(C2CCN(CC(N)=O)CC2)c(=O)n4C)cn1 [Compound 139, 2-{4-[8-(6-methoxypyridin-3-yl)-3-methyl-2-oxo-2,3-dihydro-1H-imidazo[4,5-c][1,5]naphthyridin-1-yl]piperidin-1-yl}acetamide]	0.000339 µM	8.48	–	0.00714 µM
COc1ccc(-c2ccc3ncc4[nH]c(=O)n(-c5ccc(C(C)(C)C#N)cc5)c4c3n2)cn1 [Compound 103, 2-{4-[8-(6-methoxypyridin-3-yl)-2-oxo-2,3-dihydro-1H-imidazo[4,5-c]-1,5-naphthyridin-1-yl]phenyl}-2-methylpropanenitrile]	0.00186 µM	8.68	0.0115 µM	–
CN(C)c1ccc(-c2ccc3ncc4c(c3n2)n(C2CCNCC2)c(=O)n4C)cn1 [Compound 191, 8-[6-(dimethylamino)pyridin-3-yl]-3-methyl-1-piperidin-4-yl-1,3-dihydro-2H-imidazo[4,5-c][1,5]naphthyridin-2-one]	0.0005 µM	8.08	–	0.0246 µM
Cn1cc(-c2ccc3ncc4c(c3n2)n([C@H]2CC[C@H](O)CC2)c(=O)n4C)cn1 [Compound 170, 1-(trans-4-hydroxycyclohexyl)-3-methyl-8-(1-methyl-1H-pyrazo1-4-yl)-1,3-dihydro-2H-imidazo[4,5-c][1,5]naphthyridin-2-one]	0.00744 µM	8.14	–	0.107 µM
